This is an account of results in patent US8030354B2, “Substituted biphenyl GPR40 modulators” (Amgen Inc., priority 2007, dated 2011).

Experiment [1] concerns the target T1, GPR40 (Homo sapiens, UniProt O14842). Briefly: Cell-based aequorin assay (CHO cells stably expressing GPR40 and aequorin). On the set-up: expressed in transfected cells; host or cells: CHO cells stably transfected with GPR40 and aequorin. The settings on record: activation of human GPR40, CHO cells, 0.01% HSA. In a few lines:
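CHO cells stably co-expressing GPR40 and aequorin, loaded with coelenterazine (1 ug/mL, 2 h, room temperature) in H/HBSS with 20 mM Hepes and 0.01% fatty acid-free HSA. Serially diluted compounds added; luminescence recorded over 20 s. EC50 from dose-response of maximum relative light units.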

Experiment [2] has as its target T1, GPR40. In words: Inositol phosphate accumulation assay (A9_GPR40 cells). The experiment is classed as cell-based. On the set-up: expressed in transfected cells; host or cells: CHO cells stably transfected with GPR40 and aequorin. Particulars: inositol phosphate assay, A9_GPR40 cells, 1 hour; read-out: IP3 EC50. How it is done:
Briefly, the Aequorin assays were performed on doubly stable CHO cells expressing GPR40 and Aequorin DNA. […] The luminescence was recorded over a period of 20 seconds with a Microlumat luminometer (Berthold). […] The inositol phosphate assay was performed on an A9 cell line stably transfected with GPR40 (A9_GPR40). The cells were incubated with different concentrations of compounds and [^3H] inositol accumulation was measured after 1 hour.
An A9 cell line stably transfected with GPR40 (A9_GPR40) was used in IP accumulation assays. A9_GPR40 cells were plated in 96-well plates containing 20,000 cells/well in DMEM containing 10% FBS. After the cells attached to the well surface, the media was replaced with inositol free DMEM containing 10% dialyzed FBS and 1 μCi, mL ^3H-inositol and incubated for 16 hours. Compounds were diluted in HBSS/10 mM LiCl containing a desired amount of HSA and added directly to cells. Following 1 hour incubation at 37° C., the media was replaced with 100 μL of 20 mM formic acid to quench the reaction. 50 μL of the extract was then added to 100 μL of SPA beads, incubated overnight, and measured on a TopCount the following day.

T1 sequence (O14842 whole entry): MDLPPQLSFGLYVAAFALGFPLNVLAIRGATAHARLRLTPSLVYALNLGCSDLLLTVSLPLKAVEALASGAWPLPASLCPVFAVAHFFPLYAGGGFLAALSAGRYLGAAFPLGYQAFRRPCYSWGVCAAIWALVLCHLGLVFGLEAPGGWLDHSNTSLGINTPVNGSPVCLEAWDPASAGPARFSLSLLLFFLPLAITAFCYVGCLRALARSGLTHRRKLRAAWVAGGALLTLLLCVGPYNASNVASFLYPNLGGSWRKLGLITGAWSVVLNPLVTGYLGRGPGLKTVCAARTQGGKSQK

On to `COc1ccc(F)c(-c2ccc(COc3cccc(C(C)CC(=O)O)c3)cc2C2=CCC(C)(C)CC2)c1` (single isomer, unassigned) [Example 64.5, (3R)-3-(3-(((2-(4,4-Dimethyl-1-cyclohexen-1-yl)-2′-fluoro-5′-(methyloxy)-1,1′-biphenyl-4-yl)methyl)oxy)phenyl)butanoic acid or (3S)-3-(3-(((2-(4,4-dimethyl-1-cyclohexen-1-yl)-2′-fluoro-5′-(methyloxy)-1,1′-biphenyl-4-yl)methyl)oxy)phenyl)butanoic acid], for which the EC50 on GPR40 [1] was 100 to 1000 nM; on GPR40 [2] it was 10 to 100 nM.
The like results for `COc1ccc(F)c(-c2ccc(COc3cccc(C(C)CC(=O)O)c3)cc2CCC(C)(C)C)c1` (single isomer, unassigned) [Example 64.6, (3R)-3-(3-(((2-(3,3-Dimethylbutyl)-2′-fluoro-5′-(methyloxy)-1,1′-biphenyl-4-yl)methyl)oxy)phenyl)butanoic acid or (3S)-3-(3-(((2-(3,3-dimethylbutyl)-2′-fluoro-5′-(methyloxy)-1,1′-biphenyl-4-yl)methyl)oxy)phenyl)butanoic acid] were, in that order, 100 to 1000 nM and 10 to 100 nM.
The corresponding values for `COc1ccc(F)c(-c2ccc(COc3cccc(C(C)CC(=O)O)c3)cc2C2CCC(C)(C)CC2)c1` (single isomer, unassigned) [Example 64.7, (3R)-3-(3-(((2-(4,4-Dimethylcyclohexyl)-2′-fluoro-5′-(methyloxy)-1,1′-biphenyl-4-yl)methyl)oxy)phenyl)butanoic acid or (3S)-3-(3-(((2-(4,4-dimethylcyclohexyl)-2′-fluoro-5′-(methyloxy)-1,1′-biphenyl-4-yl)methyl)oxy)phenyl)butanoic acid] are 100 to 1000 nM and 10 to 100 nM.
The corresponding values for `COc1ccc(F)c(-c2ccc(COc3cccc(C(C)CC(=O)O)c3)c(F)c2C(C)(C)C)c1` (single isomer, unassigned) [Example 64.10, (3R)-3-(3-(((2-(1,1-Dimethylethyl)-2′,3-difluoro-5′-(methyloxy)-1,1′-biphenyl-4-yl)methyl)oxy)phenyl)butanoic acid or (3S)-3-(3-(((2-(1,1-dimethylethyl)-2′,3-difluoro-5′-(methyloxy)-1,1′-biphenyl-4-yl)methyl)oxy)phenyl)butanoic acid] are 100 to 1000 nM and 100 to 1000 nM.
Regarding `CCCC(C)(C)c1cc(COc2cccc(C(C)CC(=O)O)c2)ccc1-c1cc(OC)ccc1F` (single isomer, unassigned) [Example 64.11, (3R)-3-(3-(((2-(1,1-Dimethylbutyl)-2′-fluoro-5′-(methyloxy)-1,1′-biphenyl-4-yl)methyl)oxy)phenyl)butanoic acid or (3S)-3-(3-(((2-(1,1-dimethylbutyl)-2′-fluoro-5′-(methyloxy)-1,1′-biphenyl-4-yl)methyl)oxy)phenyl)butanoic acid], the EC50 on GPR40 [1] and on GPR40 [2] was 100 to 1000 nM in each case.
As for `COc1ccc(F)c(-c2ccc(COc3cccc(C(C)CC(=O)O)c3)cc2C2=CCCCCC2)c1` (single isomer, unassigned) [Example 64.12, (3R)-3-(3-(((2-(1-Cyclohepten-1-yl)-2′-fluoro-5′-(methyloxy)-1,1′-biphenyl-4-yl)methyl)oxy)phenyl)butanoic acid or (3S)-3-(3-(((2-(1-cyclohepten-1-yl)-2′-fluoro-5′-(methyloxy)-1,1′-biphenyl-4-yl)methyl)oxy)phenyl)butanoic acid], the values for the EC50 on GPR40 [1] and at GPR40 [2] were 100 to 1000 nM and 10 to 100 nM, respectively.
The like results for `COc1ccc(F)c(-c2ccc(COc3cccc(C(C)CC(=O)O)c3)cc2C2=CCC(C(C)(C)C)CC2)c1` (single isomer, unassigned) [Example 64.13, (3R)-3-(3-(((2-(4-(1,1-Dimethylethyl)-1-cyclohexen-1-yl)-2′-fluoro-5′-(methyloxy)-1,1′-biphenyl-4-yl)methyl)oxy)phenyl)butanoic acid or (3S)-3-(3-(((2-(4-(1,1-dimethylethyl)-1-cyclohexen-1-yl)-2′-fluoro-5′-(methyloxy)-1,1′-biphenyl-4-yl)methyl)oxy)phenyl)butanoic acid] were, in that order, 100 to 1000 nM and 10 to 100 nM.
The corresponding values for `CCCCCc1cc(COc2cccc(C(C)CC(=O)O)c2)ccc1-c1cc(OC)ccc1F` (single isomer, unassigned) [Example 64.14, (3R)-3-(3-(((2′-Fluoro-5′-(methyloxy)-2-pentyl-1,1′-biphenyl-4-yl)methyl)oxy)phenyl)butanoic acid or (3S)-3-(3-(((2′-fluoro-5′-(methyloxy)-2-pentyl-1,1′-biphenyl-4-yl)methyl)oxy)phenyl)butanoic acid] are 100 to 1000 nM and 100 to 1000 nM.
The like results for `COc1ccc(F)c(-c2ccc(COc3cccc(C(C)CC(=O)O)c3)cc2CCC2CCCCC2)c1` (single isomer, unassigned) [Example 64.15, (3R)-3-(3-(((2-(2-Cyclohexylethyl)-2′-fluoro-5′-(methyloxy)-1,1′-biphenyl-4-yl)methyl)oxy)phenyl)butanoic acid or (3S)-3-(3-(((2-(2-cyclohexylethyl)-2′-fluoro-5′-(methyloxy)-1,1′-biphenyl-4-yl)methyl)oxy)phenyl)butanoic acid] were, in that order, 100 to 1000 nM and 10 to 100 nM.
`COc1ccc(F)c(-c2ccc(COc3cccc([C@H](C)CC(=O)O)c3)cc2C23CC4CC(CC(C4)C2)C3)c1` (single isomer, unassigned) [Example 64.16, (3R)-3-(3-(((2′-Fluoro-5′-(methyloxy)-2-tricyclo[3.3.1.1˜3,7˜]dec-1-yl-1,1′-biphenyl-4-yl)methyl)oxy)phenyl)butanoic acid or (3S)-3-(3-(((2′-fluoro-5′-(methyloxy)-2-tricyclo[3.3.1.1˜3,7˜]dec-1-yl-1,1′-biphenyl-4-yl)methyl)oxy)phenyl)butanoic acid]: the figures for the 50% effective concentration (EC50) on GPR40 [1] and at GPR40 [2] were 100 to 1000 nM and 10 to 100 nM, respectively.
`COc1ccc(F)c(-c2ccc(COc3cccc(C(C)CC(=O)O)c3)cc2C2CCCCCC2)c1` (single isomer, unassigned) [Example 64.17, (3R)-3-(3-(((2-Cycloheptyl-2′-fluoro-5′-(methyloxy)-1,1′-biphenyl-4-yl)methyl)oxy)phenyl)butanoic acid or (3S)-3-(3-(((2-cycloheptyl-2′-fluoro-5′-(methyloxy)-1,1′-biphenyl-4-yl)methyl)oxy)phenyl)butanoic acid]: the EC50 was 100 to 1000 nM on GPR40 [1] and 10 to 100 nM on GPR40 [2].
The like results for `COc1ccc(F)c(-c2ccc(COc3cccc(C(C)CC(=O)O)c3)cc2C2(C)CC2)c1` (single isomer, unassigned) [Example 64.18, (3R)-3-(3-(((2′-Fluoro-2-(1-methylcyclopropyl)-5′-(methyloxy)-1,1′-biphenyl-4-yl)methyl)oxy)phenyl)butanoic acid or (3S)-3-(3-(((2′-fluoro-2-(1-methylcyclopropyl)-5′-(methyloxy)-1,1′-biphenyl-4-yl)methyl)oxy)phenyl)butanoic acid] were, in that order, 100 to 1000 nM and 100 to 1000 nM.
Regarding `COc1ccc(F)c(-c2ccc(COc3cccc(C(C)CC(=O)O)c3)cc2C2=CCCC2)c1` (single isomer, unassigned) [Example 64.19, (3R)-3-(3-(((2-(1-Cyclopenten-1-yl)-2′-fluoro-5′-(methyloxy)-1,1′-biphenyl-4-yl)methyl)oxy)phenyl)butanoic acid or (3S)-3-(3-(((2-(1-cyclopenten-1-yl)-2′-fluoro-5′-(methyloxy)-1,1′-biphenyl-4-yl)methyl)oxy)phenyl)butanoic acid], the EC50 on GPR40 [1] and at GPR40 [2] was 100 to 1000 nM in each case.
Regarding `COc1cccc(-c2ccc(COc3cccc(C(C)CC(=O)O)c3)cc2C2=CCCC2(C)C)c1` (single isomer, unassigned) [Example 64.20, (3R)-3-(3-(((2-(5,5-Dimethyl-1-cyclopenten-1-yl)-3′-(methyloxy)-1,1′-biphenyl-4-yl)methyl)oxy)phenyl)butanoic acid or (3S)-3-(3-(((2-(5,5-dimethyl-1-cyclopenten-1-yl)-3′-(methyloxy)-1,1′-biphenyl-4-yl)methyl)oxy)phenyl)butanoic acid], the values for the EC50 at GPR40 [1] and at GPR40 [2] were 100 to 1000 nM and 10 to 100 nM, respectively.
The like results for `COc1ccc(F)c(-c2ccc(COc3cccc(C(C)CC(=O)O)c3)cc2C2=CCCCC2)c1` (single isomer, unassigned) [Example 64.21, (3R)-3-(3-(((2-(1-Cyclohexen-1-yl)-2′-fluoro-5′-(methyloxy)-1,1′-biphenyl-4-yl)methyl)oxy)phenyl)butanoic acid or (3S)-3-(3-(((2-(1-cyclohexen-1-yl)-2′-fluoro-5′-(methyloxy)-1,1′-biphenyl-4-yl)methyl)oxy)phenyl)butanoic acid] were, in that order, 100 to 1000 nM and 10 to 100 nM.

What is called EC50 is the concentration that produces a half-maximal response.
